# Laboratory results reported in article PMC7381750, “JP1 suppresses proliferation and metastasis of melanoma through MEK1/2 mediated NEDD4L-SP1-Integrin αvβ3 signaling” (Theranostics, 2020).
# Where “and” joins values, the source holds several entries; their conditions need not be identical. Equal values may be shown once. Non-standard residues stand in square brackets, D forms with d. Residues, ends and D or L forms follow the SMILES beside them. pS = N[C@@H](COP(=O)(O)O)C(=O)O
# Key:
# B16F10 cell = experiment: B16F10 melanoma-bearing model, JP1 and DTIC alone or in combination; type: in vivo, mouse; settings: 50 mg/kg JP1 combined with 40 mg/kg DTIC
# Protocol: (A-C) (A) Schematic representation of the B16F10 and MEWO cells melanoma-bearing model for JP1 treatment (n = 6 per group). JP1 and its control agents were administered by intraperitoneal injection. […] (D-G) (D) Schematic representation of the B16F10 cell melanoma passive metastasis model for JP1 treatment. JP1 and its control agents were administered by intraperitoneal injection. […] (F) The representative melanoma lung metastatic images by H&E-staining (scale bars, 1000 μm). […] (J-L) (J) Schematic representation of the B16F10 cell melanoma-bearing model (n= 6 per group). Both JP1 and DTIC alone or in combination treatments and relative control was administered by intraperitoneal injection in mice.
# The chemotherapeutic agent dacarbazine (DTIC) is currently as the first line drug used to treat metastatic melanoma in clinic, and was reported to cause painful symptoms and acquired resistance, compromising patient quality of life. To determine the possibility as a combination therapy between DTIC and JP1, we completed a joint treatment of DTIC and JP1 for melanoma tumor-bearing model (Figure 2J).
# LD50 in mouse = settings: in vivo
# [1] = Cynomolgus monkey toxicity test: blood routine examination; type: in vivo
# Protocol: (§1) The test was completed by Suzhou Xishan Zhongke Drugs Research and Development Co., Ltd. (Xishan, Suzhou, China). The study proposal was approved by the Institute Animal Care and Use Committee (IACUC, ID19012912). Cynomolgus monkeys (3-4 years old) were randomly divided into three groups (n = 4 per group, half male and female); and the monkeys were treated with solvent control (Mannitol in saline, 75 mg/kg/d), JP1 (45 mg/kg/day) and JP1 (150 mg/kg/day) for 14 days. The experiment was ended on 15th day and the animals were euthanasia. The relevant clinical parameters were determined on 7th and 13th day, respectively. The observed parameters were including clinical symptoms, weight, food intake, body temperature, ophthalmology, electrocardiogram, blood routine examination, blood biochemistry, blood coagulation, urinalysis, immunotoxicity.
# (§2) Supplementary database files: Cynomolgus monkey toxicity test […]
# (§3) The study was conducted by a contract service in Suzhou Xishan Zhongke Drugs Research and Development Co., Ltd. (Xishan, Suzhou, China). All the use of animals were approved by the Institute Animal Care and Use Commttee, IACUC. IACUC no. :
# (§4) ID19012912. The veterinarian will supervise the breeding and welfare of the animals. The company follows the Guide for the Care and Use of Laboratory Animals (8th ed., 2011).
# (§5) Cynomolgus monkeys (3-4 years old) were randomly divided into three groups (n = 4 per group, two males and two females for each group); and treated q.d./i.v. with Mannitol (75 mg/kg/d in saline), JP1 (45 mg/kg/d) and JP1 (150 mg/kg/d) for 14 days, respectively. JP1 was dissolved in saline (100 mg/2 ml) and administered intravenously at a rate of 3 ml/min.
# (§6) The JP1 was provided by Hybio Pharmaceutical Co., Ltd. (Shenzhen, China); the production of small packaging preparation (100 mg/vial in freeze-dried powder, purity > 98%; -20 °C for storage and transportation) was completed under strict GMP conditions and quality control procedures for biological preparations. No recovery period was set for this test; the experimental model was ended on 15th day. The relevant clinical indicators including symptoms, body weight, food intake, temperature, ophthalmology, electrocardiogram, blood routine examination, blood biochemistry, blood coagulation, urinalysis, immunotoxicity were determined on 7th and 13th, respectively. […]
# (§7) indicators in all animals, and the pathological observation of organs was not determined. […]
# (§8) relevant clinical indicators in two JP1 groups were no difference compared with those in […]
# (§9) Level (NOAEL) of JP1 was 150 mg/kg.
# [2] = Cynomolgus monkey toxicity test: blood coagulation; type: in vivo
# Protocol: as §1, §2, §3, §4, §5, §6, §7, §8, §9
# [3] = Cynomolgus monkey toxicity test: immunotoxicity; type: in vivo
# Protocol: as §1, §2, §3, §4, §5, §6, §7, §8, §9
# in vivo = settings: male, Sprague-Dawley, rat, ip, 100 mg/kg, half-life (t1/2)
# Protocol: The drug half-life (t1/2) is calculated by the formula t1/2 = 0.693/k, where k is the elimination rate constant (k = (Inc1-Inc2)/(t2-t1)).
# [4] = JP1 45 mg/kg/d i.v., D7, monkeys 1105,1106,2107,2108, 45 mg/kg/day
# [5] = JP1 45 mg/kg/d i.v., D13, monkeys 1105,1106,2107,2108, 45 mg/kg/day
# [6] = JP1 150 mg/kg/d i.v., D7, monkeys 1209,1210,2211,2212
# [7] = JP1 150 mg/kg/d i.v., D7, monkeys 1209,1210,2211,2212, 150 mg/kg/day
# [8] = JP1 150 mg/kg/d i.v., D13, monkeys 1209,1210,2211,2212, 150 mg/kg/day
smiles,measurement,setting,value
CC(=O)N[C@@H](Cc1ccccc1)C(=O)N1CCC[C@H]1C(=O)NCC(=O)N[C@@H](COP(=O)(O)O)C(=O)N[C@@H](CC(=O)O)C(=O)N[C@@H](CCCNC(=N)N)C(=O)N[C@@H](Cc1ccccc1)C(=O)NCC(=O)NCC(=O)NCC(=O)NCC(=O)N[C@@H](CCCNC(=N)N)C(=O)NCC(=O)N[C@@H](CC(=O)O)C(N)=O [JP1] (Ac-FPG[pS]DRFGGGGRGD-NH2),body weight curve,B16F10 cell,stable
same,liver injury,B16F10 cell; compared to DTIC alone,without obvious liver injury
same,LD50,LD50 in mouse,> 5000 mg/kg
same,BASO %,[1]; [4],0.1% and 0.0%
same,EO %,[1]; [4],0.4% and 0.0% and 0.9% and 0.5%
same,HCT,[1]; [4],34.5% and 36.0% and 39.6% and 37.9%
same,HGB,[1]; [4],118 g/L and 111 g/L and 119 g/L and 104 g/L
same,LYMPH %,[1]; [4],17.9% and 15.8% and 30.8% and 26.7%
same,MCH,[1]; [4],23.1 pg and 24.5 pg and 23.4 pg and 23.2 pg
same,MCHC,[1]; [4],311 g/L and 308 g/L and 301 g/L
same,MCV,[1]; [4],79.5 fL and 77.0 fL and 78.0 fL and 74.3 fL
same,MONO %,[1]; [4],2.6% and 2.2% and 3.8% and 2.0%
same,NEUT %,[1]; [4],81.6% and 79.8% and 64.5% and 70.2%
same,NEUT#,[1]; [4],9.22 109/L and 12.27 109/L and 11.67 109/L and 7.64 109/L
same,PLT,[1]; [4],476 109/L and 539 109/L and 485 109/L and 393 109/L
same,RBC,[1]; [4],5.10 1012/L and 4.53 1012/L and 5.08 1012/L and 4.48 1012/L
same,RET%,[1]; [4],0.68% and 2.83% and 1.78% and 2.67%
same,WBC,[1]; [4],15.04 109/L and 11.55 109/L and 18.07 109/L and 10.87 109/L
same,BASO %,[1]; [5],0.0% and 0.1%
same,EO %,[1]; [5],1.2% and 1.9% and 0.3% and 2.5%
same,HCT,[1]; [5],40.1% and 36.5% and 39.2% and 42.2%
same,HGB,[1]; [5],121 g/L and 113 g/L and 115 g/L and 127 g/L
same,LYMPH %,[1]; [5],39.5% and 40.7% and 28.2% and 42.7%
same,MCH,[1]; [5],25.3 pg and 23.1 pg and 23.9 pg and 23.3 pg
same,MCHC,[1]; [5],302 g/L and 310 g/L and 293 g/L and 301 g/L
same,MCV,[1]; [5],83.7 fL and 74.5 fL and 81.5 fL and 77.4 fL
same,MONO %,[1]; [5],7.1% and 3.5% and 4.4% and 4.8%
same,NEUT %,[1]; [5],52.2% and 53.8% and 67.0% and 49.9%
same,PLT,[1]; [5],449 109/L and 489 109/L and 561 109/L and 590 109/L
same,RBC,[1]; [5],4.79 1012/L and 4.90 1012/L and 4.81 1012/L and 5.45 1012/L
same,RET%,[1]; [5],3.65% and 0.95% and 3.41% and 1.99%
same,BASO %,[1]; [6],0.1%
same,BASO#,[1]; [6],0.01 109/L
same,EO %,[1]; [7],0.1% and 0.4% and 0.6%
same,HCT,[1]; [7],37.0% and 38.5% and 37.2% and 34.6%
same,HGB,[1]; [7],117 g/L and 112 g/L and 110 g/L and 106 g/L
same,LYMPH#,[1]; [7],3.39 109/L and 3.63 109/L and 4.19 109/L and 2.35 109/L
same,MCH,[1]; [7],24.4 pg and 23.3 pg and 23.4 pg and 21.8 pg
same,MCHC,[1]; [7],316 g/L and 291 g/L and 296 g/L and 306 g/L
same,MCV,[1]; [7],77.2 fL and 80.0 fL and 79.1 fL and 71.2 fL
same,MONO %,[1]; [7],3.4% and 4.0% and 2.4%
same,MONO#,[1]; [7],0.53 109/L and 0.65 109/L and 0.50 109/L and 0.39 109/L
same,NEUT %,[1]; [7],74.4% and 77.1% and 61.7% and 82.9%
same,NEUT#,[1]; [7],11.48 109/L and 14.75 109/L and 7.71 109/L and 13.42 109/L
same,PLT,[1]; [7],457 109/L and 540 109/L and 391 109/L and 474 109/L
same,RBC,[1]; [7],4.79 1012/L and 4.81 1012/L and 4.70 1012/L and 4.86 1012/L
same,RET#,[1]; [7],44.1 109/L and 70.7 109/L and 81.8 109/L and 74.4 109/L
same,RET%,[1]; [7],0.92% and 1.47% and 1.74% and 1.53%
same,WBC,[1]; [7],15.42 109/L and 19.12 109/L and 12.48 109/L and 16.18 109/L
same,BASO %,[1]; [8],0.1% and 0.0%
same,EO %,[1]; [8],1.7% and 0.3% and 0.8% and 1.5%
same,HCT,[1]; [8],38.8% and 38.3% and 37.7% and 36.9%
same,HGB,[1]; [8],109 g/L and 115 g/L and 121 g/L and 111 g/L
same,LYMPH %,[1]; [8],30.4% and 27.4% and 43.1% and 40.0%
same,LYMPH#,[1]; [8],4.07 109/L and 5.06 109/L and 2.56 109/L and 4.46 109/L
same,MCH,[1]; [8],23.7 pg and 21.4 pg and 24.5 pg and 23.8 pg
same,MCHC,[1]; [8],295 g/L and 296 g/L and 316 g/L and 294 g/L
same,MCV,[1]; [8],80.2 fL and 72.3 fL and 77.7 fL and 80.9 fL
same,MONO %,[1]; [8],6.3% and 6.4% and 4.1% and 7.8%
same,NEUT %,[1]; [8],65.9% and 52.0% and 50.6% and 61.5%
same,PLT,[1]; [8],357 109/L and 548 109/L and 451 109/L and 510 109/L
same,RBC,[1]; [8],4.60 1012/L and 5.37 1012/L and 4.93 1012/L and 4.66 1012/L
same,RET%,[1]; [8],1.63% and 2.23% and 2.58% and 1.36%
same,WBC,[1]; [8],9.44 109/L and 12.65 109/L and 8.41 109/L and 16.30 109/L
same,APTT,[2]; [4],23.2 s and 28.0 s and 25.5 s and 25.1 s
same,FIB,[2]; [4],2.59 g/L and 2.84 g/L and 2.33 g/L and 2.34 g/L
same,PT,[2]; [4],11.8 s and 11.0 s and 12.2 s and 11.9 s
same,APTT,[2]; [5],25.3 s and 24.6 s and 24.2 s and 22.6 s
same,FIB,[2]; [5],3.02 g/L and 2.81 g/L and 2.68 g/L and 2.51 g/L
same,PT,[2]; [5],11.7 s and 12.2 s and 10.9 s
same,APTT,[2]; [7],23.7 s and 25.2 s and 33.8 s and 27.7 s
same,FIB,[2]; [7],2.71 g/L and 3.21 g/L and 2.66 g/L and 2.89 g/L
same,PT,[2]; [7],11.8 s and 12.5 s and 11.7 s and 12.0 s
same,APTT,[2]; [8],23.5 s and 24.9 s and 29.9 s and 27.8 s
same,FIB,[2]; [8],2.90 g/L and 2.99 g/L and 2.97 g/L and 3.27 g/L
same,PT,[2]; [8],11.9 s and 12.4 s and 11.8 s and 11.7 s
same,CD3+CD4+,[3]; [4],14.420% and 14.760% and 20.160% and 13.220%
same,CD3+CD8+,[3]; [4],27.140% and 25.500% and 32.040% and 35.620%
same,CD3+CD4+,[3]; [5],13.100% and 19.100% and 14.180% and 13.220%
same,CD3+CD8+,[3]; [5],41.820% and 43.140% and 47.160% and 31.220%
same,CD3+CD8+,[3]; [7],35.120% and 32.940% and 27.060% and 33.660%
same,CD3+CD4+,[3]; [8],24.420% and 20.280% and 28.260% and 22.580%
same,CD3+CD8+,[3]; [8],40.460% and 36.280% and 38.920% and 46.260%
same,half-life,in vivo,~1.32 h
